Assay results reported in patent publication US20150105252A1, “SUBSTITUTED PYRAZOLES AS HERBICIDES” (E I DU PONT DE NEMOURS AND COMPANY, priority 2013, published 2015).

What was measured:
field violet = test: Test D preemergence; format: in vivo, Viola arvensis; conditions: scale 0 to 100
Procedure, shortened: (§1)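 Scores of 0 (no effect) to 100 (complete control) come from visual comparison with untreated plants 14–21 days after spraying. Applications were made pre-emergence to silt loam or post-emergence to plants 2–18 cm tall.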

goosegrass = test: Test F preemergence; format: in vivo, Eleusine indica
Procedure, shortened: (§2)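 Visual injury was scored from 0 (none) to 100 (complete control) relative to untreated controls after 14–21 days in a greenhouse. Before that, formulated compound (solvent plus surfactant) was sprayed either on silt-loam soil right after sowing or on emerged plants at the 1–4-leaf stage, 2–18 cm tall.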

windgrass [1] = test: Test D postemergence; format: in vivo, Apera spica-venti; conditions: scale 0 to 100
Procedure, shortened: as §1

galium = test: Test D postemergence; format: in vivo, Galium aparine; conditions: scale 0 to 100
Procedure, shortened: as §1

dayflower, VA = test: Test F preemergence; format: in vivo, Commelina virginica
Procedure, shortened: as §2

blackgrass = test: Test D preemergence; format: in vivo, Alopecurus myosuroides; conditions: scale 0 to 100
Procedure, shortened: as §1

soybean = test: Test F preemergence; format: in vivo, Glycine max
Procedure, shortened: as §2

chickweed = test: Test D preemergence; format: in vivo, Stellaria media; conditions: scale 0 to 100
Procedure, shortened: as §1

wheat, spring = test: Test D preemergence; format: in vivo, Triticum aestivum; conditions: scale 0 to 100
Procedure, shortened: as §1

wheat, winter = test: Test D preemergence; format: in vivo, Triticum aestivum; conditions: scale 0 to 100
Procedure, shortened: as §1

windgrass [2] = test: Test D preemergence; format: in vivo, Apera spica-venti; conditions: scale 0 to 100
Procedure, shortened: as §1

field poppy = test: Test D preemergence; format: in vivo, Papaver rhoeas; conditions: scale 0 to 100
Procedure, shortened: as §1

buckwheat, wild = test: Test D postemergence; format: in vivo, Polygonum convolvulus; conditions: scale 0 to 100
Procedure, shortened: as §1

barnyardgrass = test: Test F preemergence; format: in vivo, Echinochloa crus-galli
Procedure, shortened: as §2

[3] = Preemergence, 31 g ai/ha, scale 0 to 100
[4] = Preemergence, 62 g ai/ha, scale 0 to 100
[5] = Preemergence, 125 g ai/ha, scale 0 to 100
[6] = preemergence, 8 g ai/ha, scale 0 to 100, 100 is complete control
[7] = preemergence, 16 g ai/ha, scale 0 to 100, 100 is complete control

CCCc1cc(C(=O)NCC(F)(F)F)nn1Cc1ccnc(C(F)(F)F)c1 [Compound 105]
Plant response rating, Field Violet (field violet; 31 g ai/ha): 100
Plant response rating, Field Violet (field violet; 62 g ai/ha): 100
Plant response rating, Field Violet (field violet; 125 g ai/ha): 100
Plant response rating, Field Violet (field violet; 250 g ai/ha): 100
Plant response rating, Goosegrass (goosegrass; [3]): 40
Plant response rating, Goosegrass (goosegrass; [4]): 90
Plant response rating, Goosegrass (goosegrass; [5]): 98
Plant response rating, Goosegrass (goosegrass; [6]): 30
Plant response rating, Goosegrass (goosegrass; [7]): 35
Windgrass plant response rating (windgrass [1]; Postemergence, 31 g ai/ha): 15
Windgrass plant response rating (windgrass [1]; Postemergence, 125 g ai/ha): 40
Windgrass plant response rating (windgrass [1]; Postemergence, 250 g ai/ha): 70
Windgrass plant response rating (windgrass [1]; postemergence, 62 g ai/ha): 25
Galium plant response rating (galium; Postemergence, 31 g ai/ha): 70
Galium plant response rating (galium; Postemergence, 125 g ai/ha): 80
Galium plant response rating (galium; Postemergence, 250 g ai/ha): 85
Galium plant response rating (galium; postemergence, 62 g ai/ha): 75
Plant response rating, Dayflower, VA (dayflower, VA; [3]): 50
Plant response rating, Dayflower, VA (dayflower, VA; [4]): 80
Plant response rating, Dayflower, VA (dayflower, VA; [5]): 98
Plant response rating, Dayflower, VA (dayflower, VA; [6]): 0
Plant response rating, Dayflower, VA (dayflower, VA; [7]): 40
Plant response rating, Blackgrass (blackgrass; 31 g ai/ha): 25
Plant response rating, Blackgrass (blackgrass; 62 g ai/ha): 80
Plant response rating, Blackgrass (blackgrass; 125 g ai/ha): 100
Plant response rating, Blackgrass (blackgrass; 250 g ai/ha): 100
Plant response rating, Soybean (soybean; [3]): 100
Plant response rating, Soybean (soybean; [4]): 80
Plant response rating, Soybean (soybean; [5]): 100
Plant response rating, Soybean (soybean; [6]): 0
Plant response rating, Soybean (soybean; [7]): 0
Plant response rating, Chickweed (chickweed; 31 g ai/ha): 95
Plant response rating, Chickweed (chickweed; 62 g ai/ha): 100
Plant response rating, Chickweed (chickweed; 125 g ai/ha): 100
Plant response rating, Chickweed (chickweed; 250 g ai/ha): 100
Plant response rating, Wheat, Spring (wheat, spring; 31 g ai/ha): 10
Plant response rating, Wheat, Spring (wheat, spring; 62 g ai/ha): 40
Plant response rating, Wheat, Spring (wheat, spring; 125 g ai/ha): 75
Plant response rating, Wheat, Spring (wheat, spring; 250 g ai/ha): 100
Plant response rating, Wheat, Winter (wheat, winter; 31 g ai/ha): 15
Plant response rating, Wheat, Winter (wheat, winter; 62 g ai/ha): 35
Plant response rating, Wheat, Winter (wheat, winter; 125 g ai/ha): 75
Plant response rating, Wheat, Winter (wheat, winter; 250 g ai/ha): 90
Plant response rating, Windgrass (windgrass [2]; 31 g ai/ha): 75
Plant response rating, Windgrass (windgrass [2]; 62 g ai/ha): 100
Plant response rating, Windgrass (windgrass [2]; 125 g ai/ha): 100
Plant response rating, Windgrass (windgrass [2]; 250 g ai/ha): 100
Plant response rating, Field Poppy (field poppy; 31 g ai/ha): 100
Plant response rating, Field Poppy (field poppy; 62 g ai/ha): 100
Plant response rating, Field Poppy (field poppy; 125 g ai/ha): 100
Plant response rating, Field Poppy (field poppy; 250 g ai/ha): 100
Buckwheat, Wild plant response rating (buckwheat, wild; Postemergence, 31 g ai/ha): 55
Buckwheat, Wild plant response rating (buckwheat, wild; Postemergence, 125 g ai/ha): 70
Buckwheat, Wild plant response rating (buckwheat, wild; Postemergence, 250 g ai/ha): 80
Buckwheat, Wild plant response rating (buckwheat, wild; postemergence, 62 g ai/ha): 65
Plant response rating, Barnyardgrass (barnyardgrass; [3]): 30
Plant response rating, Barnyardgrass (barnyardgrass; [4]): 98
Plant response rating, Barnyardgrass (barnyardgrass; [5]): 98
Plant response rating, Barnyardgrass (barnyardgrass; [6]): 0
Plant response rating, Barnyardgrass (barnyardgrass; [7]): 5

CCOc1cc(C(=O)NC(C)C)nn1Cc1ccnc(C(F)(F)F)c1 [Compound 188]
Plant response rating, Field Violet (field violet; 62 g ai/ha): 100
Plant response rating, Field Violet (field violet; 125 g ai/ha): 100
Plant response rating, Field Violet (field violet; 250 g ai/ha): 100
Plant response rating, Goosegrass (goosegrass; [4]): 98
Plant response rating, Goosegrass (goosegrass; [5]): 100
Plant response rating, Goosegrass (goosegrass; [6]): 5
Windgrass plant response rating (windgrass [1]; Postemergence, 31 g ai/ha): 20
Windgrass plant response rating (windgrass [1]; Postemergence, 125 g ai/ha): 35
Windgrass plant response rating (windgrass [1]; Postemergence, 250 g ai/ha): 45
Windgrass plant response rating (windgrass [1]; postemergence, 62 g ai/ha): 20
Galium plant response rating (galium; Postemergence, 31 g ai/ha): 75
Galium plant response rating (galium; Postemergence, 125 g ai/ha): 85
Galium plant response rating (galium; Postemergence, 250 g ai/ha): 90
Galium plant response rating (galium; postemergence, 62 g ai/ha): 75
Plant response rating, Dayflower, VA (dayflower, VA; [4]): 90
Plant response rating, Dayflower, VA (dayflower, VA; [5]): 100
Plant response rating, Dayflower, VA (dayflower, VA; [6]): 0
Plant response rating, Blackgrass (blackgrass; 31 g ai/ha): 55
Plant response rating, Blackgrass (blackgrass; 62 g ai/ha): 75
Plant response rating, Blackgrass (blackgrass; 125 g ai/ha): 100
Plant response rating, Blackgrass (blackgrass; 250 g ai/ha): 100
Plant response rating, Soybean (soybean; [4]): 30
Plant response rating, Soybean (soybean; [5]): 85
Plant response rating, Soybean (soybean; [6]): 0
Plant response rating, Chickweed (chickweed; 31 g ai/ha): 100
Plant response rating, Chickweed (chickweed; 62 g ai/ha): 100
Plant response rating, Chickweed (chickweed; 125 g ai/ha): 100
Plant response rating, Chickweed (chickweed; 250 g ai/ha): 100
Plant response rating, Wheat, Spring (wheat, spring; 62 g ai/ha): 70
Plant response rating, Wheat, Spring (wheat, spring; 125 g ai/ha): 100
Plant response rating, Wheat, Spring (wheat, spring; 250 g ai/ha): 100
Plant response rating, Wheat, Winter (wheat, winter; 62 g ai/ha): 65
Plant response rating, Wheat, Winter (wheat, winter; 125 g ai/ha): 95
Plant response rating, Wheat, Winter (wheat, winter; 250 g ai/ha): 100
Plant response rating, Windgrass (windgrass [2]; 62 g ai/ha): 100
Plant response rating, Windgrass (windgrass [2]; 125 g ai/ha): 100
Plant response rating, Windgrass (windgrass [2]; 250 g ai/ha): 100
Plant response rating, Field Poppy (field poppy; 62 g ai/ha): 100
Plant response rating, Field Poppy (field poppy; 125 g ai/ha): 100
Plant response rating, Field Poppy (field poppy; 250 g ai/ha): 100
Buckwheat, Wild plant response rating (buckwheat, wild; Postemergence, 31 g ai/ha): 60
Buckwheat, Wild plant response rating (buckwheat, wild; Postemergence, 125 g ai/ha): 70
Buckwheat, Wild plant response rating (buckwheat, wild; Postemergence, 250 g ai/ha): 70
Buckwheat, Wild plant response rating (buckwheat, wild; postemergence, 62 g ai/ha): 60
Plant response rating, Barnyardgrass (barnyardgrass; Preemergence, 16 g ai/ha, scale 0 to 100): 25
Plant response rating, Barnyardgrass (barnyardgrass; [4]): 80
Plant response rating, Barnyardgrass (barnyardgrass; [5]): 100
Plant response rating, Barnyardgrass (barnyardgrass; [6]): 0
